# Laboratory results as given in ChEMBL document CHEMBL1201862, “PubChem BioAssay data set” (2004).
# The source made the active and inactive calls.
# Legend:
# [1] = HEp-2 cell cytotoxicity, dose response, cytotoxicity control for RSV inhibitor project, HTS (AID 2410); format: functional; details: human respiratory syncytial virus
# [2] = biological target: T1, Fatty acid synthase (Homo sapiens, UniProt P49327); assay: FAS thioesterase domain inhibitors, dose response, biochemical, endpoint fluorescence intensity, uHTS hits (AID 624327); format: functional;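 note: fluorescence from hydrolysis of an O-methyl fluorescein acyl ester substrate by the enzyme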
# T1 sequence (P49327 whole entry, the tested form may be a part): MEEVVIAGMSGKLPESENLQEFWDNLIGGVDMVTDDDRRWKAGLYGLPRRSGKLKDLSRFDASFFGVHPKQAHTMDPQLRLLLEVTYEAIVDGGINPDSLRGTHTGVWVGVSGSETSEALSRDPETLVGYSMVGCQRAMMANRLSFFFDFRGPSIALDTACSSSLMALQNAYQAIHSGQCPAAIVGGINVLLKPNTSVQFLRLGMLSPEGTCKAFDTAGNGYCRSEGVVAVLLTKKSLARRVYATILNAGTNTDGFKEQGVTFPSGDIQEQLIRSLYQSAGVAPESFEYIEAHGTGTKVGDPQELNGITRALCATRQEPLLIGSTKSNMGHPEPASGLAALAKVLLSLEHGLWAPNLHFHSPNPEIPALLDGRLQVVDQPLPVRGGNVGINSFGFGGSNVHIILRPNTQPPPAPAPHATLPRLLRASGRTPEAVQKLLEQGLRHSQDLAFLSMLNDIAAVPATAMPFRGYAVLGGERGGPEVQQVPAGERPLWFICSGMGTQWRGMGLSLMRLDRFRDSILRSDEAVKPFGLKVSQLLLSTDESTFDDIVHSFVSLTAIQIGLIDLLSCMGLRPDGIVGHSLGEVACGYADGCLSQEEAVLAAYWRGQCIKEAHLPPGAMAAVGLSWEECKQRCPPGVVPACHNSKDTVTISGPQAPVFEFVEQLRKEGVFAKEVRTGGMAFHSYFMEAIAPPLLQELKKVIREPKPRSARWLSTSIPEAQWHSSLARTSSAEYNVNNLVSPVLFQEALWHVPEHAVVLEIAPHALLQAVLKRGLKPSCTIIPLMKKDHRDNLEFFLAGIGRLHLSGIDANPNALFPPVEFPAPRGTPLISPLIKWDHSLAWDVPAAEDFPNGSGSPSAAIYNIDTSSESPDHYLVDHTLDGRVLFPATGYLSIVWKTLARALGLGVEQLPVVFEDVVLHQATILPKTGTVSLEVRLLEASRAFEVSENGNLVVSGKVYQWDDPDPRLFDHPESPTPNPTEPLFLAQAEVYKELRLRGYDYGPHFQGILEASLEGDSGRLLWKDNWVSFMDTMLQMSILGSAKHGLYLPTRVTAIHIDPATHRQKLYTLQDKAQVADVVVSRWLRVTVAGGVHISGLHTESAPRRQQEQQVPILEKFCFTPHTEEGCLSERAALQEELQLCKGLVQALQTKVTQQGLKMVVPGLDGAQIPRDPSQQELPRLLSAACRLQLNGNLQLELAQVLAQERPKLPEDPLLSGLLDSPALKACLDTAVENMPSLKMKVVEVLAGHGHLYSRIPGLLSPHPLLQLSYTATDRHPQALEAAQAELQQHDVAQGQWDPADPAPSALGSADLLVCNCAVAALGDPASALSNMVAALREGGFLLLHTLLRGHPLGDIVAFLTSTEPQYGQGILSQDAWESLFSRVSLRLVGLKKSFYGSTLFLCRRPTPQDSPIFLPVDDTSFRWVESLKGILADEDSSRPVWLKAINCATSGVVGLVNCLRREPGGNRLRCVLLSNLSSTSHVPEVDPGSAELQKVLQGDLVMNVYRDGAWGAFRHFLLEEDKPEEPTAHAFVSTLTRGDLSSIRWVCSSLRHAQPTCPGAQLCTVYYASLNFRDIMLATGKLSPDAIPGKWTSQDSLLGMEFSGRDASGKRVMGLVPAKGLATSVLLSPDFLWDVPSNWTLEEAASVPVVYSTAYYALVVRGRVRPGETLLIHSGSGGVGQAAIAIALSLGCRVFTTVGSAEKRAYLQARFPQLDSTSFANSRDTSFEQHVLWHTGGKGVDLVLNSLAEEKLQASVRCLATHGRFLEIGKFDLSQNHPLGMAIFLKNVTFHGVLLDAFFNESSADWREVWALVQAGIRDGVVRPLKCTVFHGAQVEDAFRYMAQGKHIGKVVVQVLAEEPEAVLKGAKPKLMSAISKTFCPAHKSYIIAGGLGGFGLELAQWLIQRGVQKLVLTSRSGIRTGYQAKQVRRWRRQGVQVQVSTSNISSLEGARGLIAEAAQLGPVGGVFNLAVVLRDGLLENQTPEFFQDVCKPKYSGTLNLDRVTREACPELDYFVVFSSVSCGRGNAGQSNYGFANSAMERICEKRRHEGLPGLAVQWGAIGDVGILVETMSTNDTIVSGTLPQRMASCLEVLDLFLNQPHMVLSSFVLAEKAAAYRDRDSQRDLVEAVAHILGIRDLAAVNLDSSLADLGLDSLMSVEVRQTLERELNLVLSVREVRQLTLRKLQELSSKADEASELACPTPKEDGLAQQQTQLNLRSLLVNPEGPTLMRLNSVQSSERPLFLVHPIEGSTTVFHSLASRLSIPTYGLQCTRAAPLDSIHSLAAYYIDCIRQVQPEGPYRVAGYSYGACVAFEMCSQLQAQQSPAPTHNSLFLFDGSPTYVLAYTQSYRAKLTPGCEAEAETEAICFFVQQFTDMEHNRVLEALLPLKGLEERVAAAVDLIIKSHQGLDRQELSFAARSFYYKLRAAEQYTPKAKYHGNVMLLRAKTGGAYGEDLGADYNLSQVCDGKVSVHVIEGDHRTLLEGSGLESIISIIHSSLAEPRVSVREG
# [3] = biological target: T1, Fatty acid synthase; assay: FAS thioesterase domain inhibitors, dose response, biochemical, kinetic fluorescence intensity (AID 624326); format: functional;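 note: rate of fluorescence rise from hydrolysis of a fluorogenic O-methyl fluorescein ester substrate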
# [4] = biological target: Cytochrome P450 2C9 (Homo sapiens, UniProt P11712)
# Chain of Cytochrome P450 2C9 (P11712 whole entry): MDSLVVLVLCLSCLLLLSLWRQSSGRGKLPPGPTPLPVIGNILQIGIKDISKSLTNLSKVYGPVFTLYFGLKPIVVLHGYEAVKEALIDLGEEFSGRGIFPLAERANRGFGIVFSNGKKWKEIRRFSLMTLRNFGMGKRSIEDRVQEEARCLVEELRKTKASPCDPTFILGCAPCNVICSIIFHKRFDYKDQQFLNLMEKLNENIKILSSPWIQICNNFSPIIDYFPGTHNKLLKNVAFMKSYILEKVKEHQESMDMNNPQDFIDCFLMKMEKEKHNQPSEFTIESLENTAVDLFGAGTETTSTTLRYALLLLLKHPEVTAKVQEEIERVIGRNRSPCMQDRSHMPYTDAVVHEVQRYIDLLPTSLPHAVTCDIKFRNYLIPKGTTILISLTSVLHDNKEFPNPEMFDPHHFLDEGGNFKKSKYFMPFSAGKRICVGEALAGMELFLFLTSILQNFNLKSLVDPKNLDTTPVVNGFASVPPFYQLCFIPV
# [5] = cells
# [6] = biological target: Heat shock cognate 71 kDa protein (Homo sapiens, UniProt P11142); assay: In Vitro Hsc70 Dose Response Fluorescence Polarization Assay. [Related pubchem assays: 1072 ]
# Chain of Heat shock cognate 71 kDa protein (P11142 whole entry): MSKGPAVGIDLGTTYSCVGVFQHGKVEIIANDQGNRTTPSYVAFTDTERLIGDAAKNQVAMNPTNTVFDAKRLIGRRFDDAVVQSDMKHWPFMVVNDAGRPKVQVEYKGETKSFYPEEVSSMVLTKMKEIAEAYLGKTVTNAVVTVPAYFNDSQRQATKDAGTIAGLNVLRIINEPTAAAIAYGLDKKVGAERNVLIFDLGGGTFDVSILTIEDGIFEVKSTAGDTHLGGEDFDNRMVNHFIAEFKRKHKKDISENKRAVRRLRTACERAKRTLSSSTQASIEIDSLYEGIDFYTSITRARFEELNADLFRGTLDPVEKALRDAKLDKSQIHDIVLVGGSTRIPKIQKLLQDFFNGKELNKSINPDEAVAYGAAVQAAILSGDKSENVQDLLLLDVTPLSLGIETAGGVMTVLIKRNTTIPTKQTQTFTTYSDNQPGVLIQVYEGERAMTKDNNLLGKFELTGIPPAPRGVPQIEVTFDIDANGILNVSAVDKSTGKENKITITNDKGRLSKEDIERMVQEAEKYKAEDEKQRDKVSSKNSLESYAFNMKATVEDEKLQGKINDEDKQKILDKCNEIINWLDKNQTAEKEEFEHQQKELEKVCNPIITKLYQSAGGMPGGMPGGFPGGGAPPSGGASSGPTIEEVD
# [7] = biological target: Heat shock 70 kDa protein 1A (Homo sapiens, UniProt P0DMV8); assay: Hsp70 inhibitors, SAR follow-up, biochemical, fluorescence polarization (AID 1072)
# Chain of Heat shock 70 kDa protein 1A (P0DMV8 whole entry): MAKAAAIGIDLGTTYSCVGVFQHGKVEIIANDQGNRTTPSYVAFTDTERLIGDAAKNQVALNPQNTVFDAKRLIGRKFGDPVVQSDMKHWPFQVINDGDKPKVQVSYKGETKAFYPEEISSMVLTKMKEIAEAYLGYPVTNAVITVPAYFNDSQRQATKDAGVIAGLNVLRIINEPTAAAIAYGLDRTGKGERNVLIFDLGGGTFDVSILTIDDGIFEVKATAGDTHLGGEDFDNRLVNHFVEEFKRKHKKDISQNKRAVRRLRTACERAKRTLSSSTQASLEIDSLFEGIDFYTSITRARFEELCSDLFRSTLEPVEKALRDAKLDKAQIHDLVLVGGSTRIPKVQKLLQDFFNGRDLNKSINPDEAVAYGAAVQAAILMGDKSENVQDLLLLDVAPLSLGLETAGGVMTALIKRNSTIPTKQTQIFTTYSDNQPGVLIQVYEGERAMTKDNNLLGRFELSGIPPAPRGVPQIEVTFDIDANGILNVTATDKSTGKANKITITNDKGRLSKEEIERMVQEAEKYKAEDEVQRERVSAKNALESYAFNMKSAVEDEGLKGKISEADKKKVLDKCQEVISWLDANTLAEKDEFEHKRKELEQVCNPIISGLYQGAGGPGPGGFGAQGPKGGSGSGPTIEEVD
# [8] = biological target: Photoreceptor-specific nuclear receptor (Homo sapiens, UniProt Q9Y5X4); format: functional;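 note: potency for compounds that break the NR2E3 corepressor complex and count as activators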
# Chain of Photoreceptor-specific nuclear receptor (Q9Y5X4 whole entry): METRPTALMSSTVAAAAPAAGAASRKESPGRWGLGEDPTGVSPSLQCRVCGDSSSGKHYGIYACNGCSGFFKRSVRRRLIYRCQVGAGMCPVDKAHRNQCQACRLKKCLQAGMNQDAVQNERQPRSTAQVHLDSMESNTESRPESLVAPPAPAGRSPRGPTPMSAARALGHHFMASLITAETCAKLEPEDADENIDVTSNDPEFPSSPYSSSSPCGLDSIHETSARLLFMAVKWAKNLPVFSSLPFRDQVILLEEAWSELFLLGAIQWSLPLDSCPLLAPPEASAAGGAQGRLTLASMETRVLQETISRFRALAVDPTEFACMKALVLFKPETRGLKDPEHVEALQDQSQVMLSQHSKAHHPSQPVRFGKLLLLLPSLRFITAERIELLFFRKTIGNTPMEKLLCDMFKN
# [9] = biological target: Peroxisome proliferator-activated receptor gamma/Nuclear receptor coactivator 1 (Homo sapiens, UniProt P37231); assay: (§1) TR-FRET dose response biochemical High Throughput Screening assay for agonists of the steroid receptor coactivator 1 (SRC-1) recruitment by the peroxisome proliferator-activated receptor gamma (PPAR gamma): non-selective agonists. [Related pubchem assays (depositor defined):AID1300, AID1808, AID504735, AID631]; format: protein assay
# [10] = biological target: Peroxisome proliferator-activated receptor gamma/Nuclear receptor coactivator 3 (Homo sapiens, UniProt P37231); assay: as §1, with “3 (SRC-3)” for “1 (SRC-1)”, “assays: 1301 (Confirmation screen.), 1048 (Primary screen.)]” for “assays (depositor defined):AID1300, AID1808, AID504735, AID631]”; format: functional
# [11] = biological target: Peroxisome proliferator-activated receptor gamma/Nuclear receptor coactivator 2 (Homo sapiens, UniProt P37231); assay: TR-FRET dose response biochemical High Throughput Screening assay for agonists of the steroid receptor coactivator 2 (SRC-2) recruitment by the peroxisome proliferator-activated receptor gamma (PPAR gamma): non-selective agonists. [Related pubchem assays: 1297, 1032 ]; format: functional
# [12] = biological target: Peroxisome proliferator-activated receptor gamma/Nuclear receptor corepressor 2 (Homo sapiens, UniProt P37231+Q9Y618); format: functional
compound,measurement,setting,value
Cc1ccc2cc3cc(C(=O)N4CCCCC4C)oc3nc2c1 (configuration not stated),CC50,[1],> 50 µM (active)
same,IC50,[2],2.28 µM (active)
same,IC50,[3],4.44 µM (active)
same,AC50,[4],inconclusive
same,IC50,[5],21.4 µM (active)
O=C(O)CCc1c2ccc(=O)c(O)c-2oc2c(O)c(O)ccc12,IC50,[6],3.98 µM (active)
same,IC50,[7],0.578 µM (active)
COC(=O)c1cc(Br)c(=O)n(-c2nccs2)c1,IC50,[8],> 39.8 µM (not active)
same,EC50,[9],> 79.4 µM (inactive)
same,EC50,[10],> 79.4 µM (not active)
same,EC50,[11],> 79.4 µM (not active)
same,IC50,[12],6.29 µM (active)
